Here are results for 33 compounds from patent US20130303509A1, “NAMPT INHIBITORS” (AbbVie Inc., priority 2012, published 2013).

pIC50: −log10 of the molar value.

The assay deals with PC3 cells. Nature of the assay: NAMPT Cell Proliferation Assay. The class given is cell-based. Particulars: Homo sapiens, PC-3, 120 h, 5 days incubation, cell viability by Cell Titer Glo. Summed up: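 Seeded at 500 cells/well in RPMI with 10% heat-inactivated FBS and left to attach overnight at 37° C, 5% CO2. Compounds were added as 10-fold dilutions […] for 5 days, then viability was read by CellTiter-Glo. IC50s came from sigmoidal fits of percent inhibition.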
For `O=C(Nc1ccc(OC2CCN(C(=O)c3ccsc3)CC2)cc1)C1CN(c2ccnnc2)C1` [Example 278, 1-(pyridazin-4-yl)-N-(4-{[1-(thiophen-3-ylcarbonyl)piperidin-4-yl]oxy}phenyl)azetidine-3-carboxamide], the pIC50 is 7.10.
Next, `O=C(Nc1ccc(OC2CCN(C(=O)c3ccccc3Cl)CC2)cc1)C1CN(c2ccnnc2)C1` [Example 279, N-(4-{[1-(2-chlorobenzoyl)piperidin-4-yl]oxy}phenyl)-1-(pyridazin-4-yl)azetidine-3-carboxamide]: 8.01; `CC(C)(C)C(=O)N1CCC(Oc2ccc(NC(=O)C3CN(c4ccnnc4)C3)cc2)CC1` [Example 280, N-(4-{[1-(2,2-dimethylpropanoyl)piperidin-4-yl]oxy}phenyl)-1-(pyridazin-4-yl)azetidine-3-carboxamide]: 7.14.
To `CC(C)(C(=O)N1CCC(Oc2ccc(NC(=O)C3CN(c4ccnnc4)C3)cc2)CC1)c1ccccc1` [Example 281, N-(4-{[1-(2-methyl-2-phenylpropanoyl)piperidin-4-yl]oxy}phenyl)-1-(pyridazin-4-yl)azetidine-3-carboxamide] belongs 7.77; to `CC(=O)N1CCC(Oc2ccc(NC(=O)C3CN(c4ccnnc4)C3)cc2)CC1` [Example 282, N-{4-[(1-acetylpiperidin-4-yl)oxy]phenyl}-1-(pyridazin-4-yl)azetidine-3-carboxamide], 6.20.
To `O=C(Nc1ccc(OC2CCN(C(=O)c3nccs3)CC2)cc1)C1CN(c2ccnnc2)C1` [Example 283, 1-(pyridazin-4-yl)-N-(4-{[1-(1,3-thiazol-2-ylcarbonyl)piperidin-4-yl]oxy}phenyl)azetidine-3-carboxamide] belongs 7.14; to `O=C(Nc1ccc(OC2CCN(C(=O)c3ccc(F)cc3F)CC2)cc1)C1CN(c2ccnnc2)C1` [Example 284, N-(4-{[1-(2,4-difluorobenzoyl)piperidin-4-yl]oxy}phenyl)-1-(pyridazin-4-yl)azetidine-3-carboxamide], 7.18; to `O=C(Nc1ccc(OC2CCN(C(=O)c3cccc(C(F)(F)F)c3)CC2)cc1)C1CN(c2ccnnc2)C1` [Example 285, 1-(pyridazin-4-yl)-N-[4-({1-[3-(trifluoromethyl)benzoyl]piperidin-4-yl}oxy)phenyl]azetidine-3-carboxamide], 7.16.
For the compound `O=C(Nc1ccc(OC2CCN(C(=O)c3cccc(F)c3)CC2)cc1)C1CN(c2ccnnc2)C1` [Example 286, N-(4-{[1-(3-fluorobenzoyl)piperidin-4-yl]oxy}phenyl)-1-(pyridazin-4-yl)azetidine-3-carboxamide], the pIC50 was 7.13.
Next, `O=C(Nc1ccc(OC2CCN(C(=O)c3ccc(C(F)(F)F)cc3)CC2)cc1)C1CN(c2ccnnc2)C1` [Example 287, 1-(pyridazin-4-yl)-N-[4-({1-[4-(trifluoromethyl)benzoyl]piperidin-4-yl}oxy)phenyl]azetidine-3-carboxamide]: 6.92; `O=C(Nc1ccc(OC2CCN(C(=O)Cc3cccc(F)c3)CC2)cc1)C1CN(c2ccnnc2)C1` [Example 288, N-[4-({1-[(3-fluorophenyl)acetyl]piperidin-4-yl}oxy)phenyl]-1-(pyridazin-4-yl)azetidine-3-carboxamide]: 7.61; `O=C(Nc1ccc(OC2CCN(C(=O)c3ccccc3F)CC2)cc1)C1CN(c2ccnnc2)C1` [Example 289, N-(4-{[1-(2-fluorobenzoyl)piperidin-4-yl]oxy}phenyl)-1-(pyridazin-4-yl)azetidine-3-carboxamide]: 7.27.
Next, `O=C(Nc1ccc(OC2CCN(C(=O)c3ccc(OC(F)(F)F)cc3)CC2)cc1)C1CN(c2ccnnc2)C1` [Example 290, 1-(pyridazin-4-yl)-N-[4-({1-[4-(trifluoromethoxy)benzoyl]piperidin-4-yl}oxy)phenyl]azetidine-3-carboxamide]: 7.09.
`O=C(Nc1ccc(OC2CCN(C(=O)Cc3cc(F)cc(F)c3)CC2)cc1)C1CN(c2ccnnc2)C1` [Example 291, N-[4-({1-[(3,5-difluorophenyl)acetyl]piperidin-4-yl}oxy)phenyl]-1-(pyridazin-4-yl)azetidine-3-carboxamide] had a pIC50 of 7.13.
`O=C(Nc1ccc(OC2CCN(C(=O)c3cccc(OC(F)(F)F)c3)CC2)cc1)C1CN(c2ccnnc2)C1` [Example 292, 1-(pyridazin-4-yl)-N-[4-({1-[3-(trifluoromethoxy)benzoyl]piperidin-4-yl}oxy)phenyl]azetidine-3-carboxamide]: the negative-log IC50 (pIC50) was 7.03.
With `O=C(Nc1ccc(OC2CCN(C(=O)CC3CC3)CC2)cc1)C1CN(c2ccnnc2)C1` [Example 293, N-(4-{[1-(cyclopropylacetyl)piperidin-4-yl]oxy}phenyl)-1-(pyridazin-4-yl)azetidine-3-carboxamide], the pIC50 is 7.14.
Next, `CC(C)C(=O)N1CCC(Oc2ccc(NC(=O)C3CN(c4ccnnc4)C3)cc2)CC1` [Example 294, N-(4-{[1-(2-methylpropanoyl)piperidin-4-yl]oxy}phenyl)-1-(pyridazin-4-yl)azetidine-3-carboxamide]: 7.08; `O=C(Nc1ccc(OC2CCN(C(=O)c3cccc(Cl)c3)CC2)cc1)C1CN(c2ccnnc2)C1` [Example 295, N-(4-{[1-(3-chlorobenzoyl)piperidin-4-yl]oxy}phenyl)-1-(pyridazin-4-yl)azetidine-3-carboxamide]: 7.15; `O=C(Nc1ccc(OC2CCN(C(=O)c3ccccn3)CC2)cc1)C1CN(c2ccnnc2)C1` [Example 296, 1-(pyridazin-4-yl)-N-(4-{[1-(pyridin-2-ylcarbonyl)piperidin-4-yl]oxy}phenyl)azetidine-3-carboxamide]: 7.16.
To `O=C(Nc1ccc(OC2CCN(C(=O)c3ccc(Cl)cc3)CC2)cc1)C1CN(c2ccnnc2)C1` [Example 297, N-(4-{[1-(4-chlorobenzoyl)piperidin-4-yl]oxy}phenyl)-1-(pyridazin-4-yl)azetidine-3-carboxamide] belongs 7.03; to `O=C(Nc1ccc(OC2CCN(C(=O)C3CCOC3)CC2)cc1)C1CN(c2ccnnc2)C1` (stereo not drawn) [Example 298, 1-(pyridazin-4-yl)-N-(4-{[1-(tetrahydrofuran-3-ylcarbonyl)piperidin-4-yl]oxy}phenyl)azetidine-3-carboxamide], 7.01; to `O=C(Nc1ccc(OC2CCN(C(=O)c3cc(F)cc(F)c3)CC2)cc1)C1CN(c2ccnnc2)C1` [Example 299, N-(4-{[1-(3,5-difluorobenzoyl)piperidin-4-yl]oxy}phenyl)-1-(pyridazin-4-yl)azetidine-3-carboxamide], 7.07.
Next, `CCC(C)(C)C(=O)N1CCC(Oc2ccc(NC(=O)C3CN(c4ccnnc4)C3)cc2)CC1` [Example 300, N-(4-{[1-(2,2-dimethylbutanoyl)piperidin-4-yl]oxy}phenyl)-1-(pyridazin-4-yl)azetidine-3-carboxamide]: 7.59; `O=C(Nc1ccc(OC2CCN(C(=O)C3CC3)CC2)cc1)C1CN(c2ccnnc2)C1` [Example 301, N-(4-{[1-(cyclopropylcarbonyl)piperidin-4-yl]oxy}phenyl)-1-(pyridazin-4-yl)azetidine-3-carboxamide]: 7.04.
Compound `O=C(Nc1ccc(OC2CCN(C(=O)C3CCCO3)CC2)cc1)C1CN(c2ccnnc2)C1` (stereo not drawn) [Example 302, 1-(pyridazin-4-yl)-N-(4-{[1-(tetrahydrofuran-2-ylcarbonyl)piperidin-4-yl]oxy}phenyl)azetidine-3-carboxamide] showed a pIC50 of 7.08.
For `O=C(Nc1ccc(OC2CCN(C(=O)c3cccs3)CC2)cc1)C1CN(c2ccnnc2)C1` [Example 303, 1-(pyridazin-4-yl)-N-(4-{[1-(thiophen-2-ylcarbonyl)piperidin-4-yl]oxy}phenyl)azetidine-3-carboxamide], the pIC50 was 7.23.
Next, `Cc1ccc(C(=O)N2CCC(Oc3ccc(NC(=O)C4CN(c5ccnnc5)C4)cc3)CC2)s1` [Example 304, N-[4-({1-[(5-methylthiophen-2-yl)carbonyl]piperidin-4-yl}oxy)phenyl]-1-(pyridazin-4-yl)azetidine-3-carboxamide]: 7.48; `O=C(Nc1ccc(OC2CCN(C(=O)Cc3cccc(C(F)(F)F)c3)CC2)cc1)C1CN(c2ccnnc2)C1` [Example 305, 1-(pyridazin-4-yl)-N-{4-[(1-{[3-(trifluoromethyl)phenyl]acetyl}piperidin-4-yl)oxy]phenyl}azetidine-3-carboxamide]: 6.99; `O=C(Nc1ccc(OC2CCN(C(=O)C3CCOCC3)CC2)cc1)C1CN(c2ccnnc2)C1` [Example 306, 1-(pyridazin-4-yl)-N-(4-{[1-(tetrahydro-2H-pyran-4-ylcarbonyl)piperidin-4-yl]oxy}phenyl)azetidine-3-carboxamide]: 7.46.
To `CC[C@H](C)C(=O)N1CCC(Oc2ccc(NC(=O)C3CN(c4ccnnc4)C3)cc2)CC1` [Example 307, N-[4-({1-[(2S)-2-methylbutanoyl]piperidin-4-yl}oxy)phenyl]-1-(pyridazin-4-yl)azetidine-3-carboxamide] belongs 7.68; to `O=C(Nc1ccc(OC2CCN(C(=O)Cc3ccccc3F)CC2)cc1)C1CN(c2ccnnc2)C1` [Example 308, N-[4-({1-[(2-fluorophenyl)acetyl]piperidin-4-yl}oxy)phenyl]-1-(pyridazin-4-yl)azetidine-3-carboxamide], 7.21.
To `CC(C)Cn1cc(-c2ccc(C(=O)NC3CN(c4cccnn4)C3)o2)cn1` [Example 309, 5-[1-(2-methylpropyl)-1H-pyrazol-4-yl]-N-[1-(pyridazin-3-yl)azetidin-3-yl]furan-2-carboxamide] belongs 5.09.
`CC(C)C(=O)N1CCC(c2ccc(NC(=O)[C@H]3CCN(c4cccnn4)C3)cc2)CC1` [Example 310, (3S)—N-{4-[1-(2-methylpropanoyl)piperidin-4-yl]phenyl}-1-(pyridazin-3-yl)pyrrolidine-3-carboxamide] showed a pIC50 of 7.79.
